ChEMBL document CHEMBL3885881, “DrugMatrix”

Species on record: Rattus norvegicus
Format: toxicity, organism-based, Sprague-Dawley
Conditions: in vivo, po, route oral GAVAGE, […]; for ABSOLUTE EOSINOPHIL / ABSOLUTE LYMPHOCYTE / ABSOLUTE MONOCYTE / ABSOLUTE SEGMENTED NEUTROPHIL / BASOPHIL / EOSINOPHIL / ERYTHROCYTE COUNT / HEMATOCRIT / HEMOGLOBIN / LEUKOCYTE COUNT / LYMPHOCYTE / MEAN CORPUSCULAR HEMOGLOBIN / MEAN CORPUSCULAR HEMOGLOBIN CONCENTRATION / MEAN CORPUSCULAR VOLUME / MONOCYTE / NEUTROPHIL / NUCLEATED RED BLOOD CELLS / PLATELET COUNT: tissue Blood; for ALANINE AMINOTRANSFERASE / ALBUMIN / ALKALINE PHOSPHATASE / ASPARTATE AMINOTRANSFERASE / BLOOD UREA NITROGEN / CARBON DIOXIDE / CHLORIDE / CHOLESTEROL / CREATINE PHOSPHOKINASE / CREATININE / GLUCOSE / LACTATE DEHYDROGENASE / LIPASE / PHOSPHORUS / POTASSIUM / SODIUM / TOTAL BILIRUBIN / TOTAL PROTEIN / URIC ACID: tissue Plasma
[1] = 0 mg/kg, 6 h, vehicle control, dose level Control, time 0.25 day
[2] = 0 mg/kg, 24 h, vehicle control, dose level Control, time 1 day
[3] = 400 mg/kg, 6 h, dose level Low, time 0.25 day

Description: DrugMatrix - Regimen: Single

SMILES: ClC(Cl)(Cl)Cl [CARBON TETRACHLORIDE]
- ABSOLUTE EOSINOPHIL [1]: 61.17 CELLS/uL
- ABSOLUTE LYMPHOCYTE [1]: 12625.83 CELLS/uL
- ABSOLUTE MONOCYTE [1]: 417.17 CELLS/uL
- ABSOLUTE SEGMENTED NEUTROPHIL [1]: 1595.83 CELLS/uL
- BASOPHIL [1]: 0%
- EOSINOPHIL [1]: 0.33%
- ERYTHROCYTE COUNT [1]: 5.46 x10E6/uL
- HEMATOCRIT [1]: 36.02%
- HEMOGLOBIN [1]: 13.55 G/DL
- LEUKOCYTE COUNT [1]: 14.7 x10E3/uL
- LYMPHOCYTE [1]: 85.83%
- MEAN CORPUSCULAR HEMOGLOBIN [1]: 24.87 pg
- MEAN CORPUSCULAR HEMOGLOBIN CONCENTRATION [1]: 37.65 G/DL
- MEAN CORPUSCULAR VOLUME [1]: 66.03 fL
- MONOCYTE [1]: 2.67%
- NEUTROPHIL [1]: 11.17%
- NUCLEATED RED BLOOD CELLS [1]: 0 /100WBC
- PLATELET COUNT [1]: 1072.33 x10E3/uL
- ALANINE AMINOTRANSFERASE [1]: 63.33 u/L
- ALBUMIN [1]: 4.58 G/DL
- ALKALINE PHOSPHATASE [1]: 285 u/L
- ASPARTATE AMINOTRANSFERASE [1]: 116.5 u/L
- BLOOD UREA NITROGEN [1]: 9.17 mg/dL
- CARBON DIOXIDE [1]: 18.83 mmol/L
- CHLORIDE [1]: 104.5 MEQ/L
- CHOLESTEROL [1]: 68.67 mg/dL
- CREATINE PHOSPHOKINASE [1]: 421 u/L
- CREATININE [1]: 0.58 mg/dL
- GLUCOSE [1]: 160.67 mg/dL
- LACTATE DEHYDROGENASE [1]: 396 u/L
- LIPASE [1]: 10.33 u/L
- PHOSPHORUS [1]: 12.25 mg/dL
- POTASSIUM [1]: 6.42 MEQ/L
- SODIUM [1]: 142.77 MEQ/L
- TOTAL BILIRUBIN [1]: 0.25 mg/dL
- TOTAL PROTEIN [1]: 5.48 G/DL
- URIC ACID [1]: 1.65 mg/dL
- HEMATOCRIT (0 mg/kg, 24 h, dose level Control, time 1 day): 31.9%
- ABSOLUTE EOSINOPHIL [2]: 23.83 CELLS/uL
- ABSOLUTE LYMPHOCYTE [2]: 11026.5 CELLS/uL
- ABSOLUTE MONOCYTE [2]: 98.5 CELLS/uL
- ABSOLUTE SEGMENTED NEUTROPHIL [2]: 667.83 CELLS/uL
- BASOPHIL [2]: 0%
- EOSINOPHIL [2]: 0.17%
- ERYTHROCYTE COUNT [2]: 4.92 x10E6/uL
- HEMOGLOBIN [2]: 12.6 G/DL
- LEUKOCYTE COUNT [2]: 11.82 x10E3/uL
- LYMPHOCYTE [2]: 93%
- MEAN CORPUSCULAR HEMOGLOBIN [2]: 25.7 pg
- MEAN CORPUSCULAR HEMOGLOBIN CONCENTRATION [2]: 39.57 G/DL
- MEAN CORPUSCULAR VOLUME [2]: 64.97 fL
- MONOCYTE [2]: 0.83%
- NEUTROPHIL [2]: 6%
- NUCLEATED RED BLOOD CELLS [2]: 0 /100WBC
- PLATELET COUNT [2]: 872.33 x10E3/uL
- ALANINE AMINOTRANSFERASE [2]: 82.67 u/L
- ALBUMIN [2]: 4.17 G/DL
- ALKALINE PHOSPHATASE [2]: 321.83 u/L
- ASPARTATE AMINOTRANSFERASE [2]: 99.5 u/L
- BLOOD UREA NITROGEN [2]: 13.33 mg/dL
- CARBON DIOXIDE [2]: 33.67 mmol/L
- CHLORIDE [2]: 99.83 MEQ/L
- CHOLESTEROL [2]: 64 mg/dL
- CREATINE PHOSPHOKINASE [2]: 275.33 u/L
- CREATININE [2]: 0.21 mg/dL
- GLUCOSE [2]: 146.17 mg/dL
- LACTATE DEHYDROGENASE [2]: 101 u/L
- LIPASE [2]: 9.83 u/L
- PHOSPHORUS [2]: 8.82 mg/dL
- POTASSIUM [2]: 5.51 MEQ/L
- SODIUM [2]: 143.2 MEQ/L
- TOTAL BILIRUBIN [2]: 0.18 mg/dL
- TOTAL PROTEIN [2]: 5.83 G/DL
- URIC ACID [2]: 0.63 mg/dL
- ABSOLUTE EOSINOPHIL [3]: 44 CELLS/uL
- ABSOLUTE LYMPHOCYTE [3]: 11229.17 CELLS/uL
- ABSOLUTE MONOCYTE [3]: 321.83 CELLS/uL
- ABSOLUTE SEGMENTED NEUTROPHIL [3]: 3421.67 CELLS/uL
- BASOPHIL [3]: 0%
- EOSINOPHIL [3]: 0.33%
- ERYTHROCYTE COUNT [3]: 6.19 x10E6/uL
- HEMATOCRIT [3]: 40.97%
- HEMOGLOBIN [3]: 15.07 G/DL
- LEUKOCYTE COUNT [3]: 15.02 x10E3/uL
- LYMPHOCYTE [3]: 73%
- MEAN CORPUSCULAR HEMOGLOBIN [3]: 24.45 pg
- MEAN CORPUSCULAR HEMOGLOBIN CONCENTRATION [3]: 36.95 G/DL
- MEAN CORPUSCULAR VOLUME [3]: 66.17 fL
- MONOCYTE [3]: 2.17%
- NEUTROPHIL [3]: 24.5%
- NUCLEATED RED BLOOD CELLS [3]: 0 /100WBC
- PLATELET COUNT [3]: 1278.5 x10E3/uL
- ALANINE AMINOTRANSFERASE [3]: 102.5 u/L
- ALBUMIN [3]: 4.68 G/DL
- ALKALINE PHOSPHATASE [3]: 305.83 u/L
- ASPARTATE AMINOTRANSFERASE [3]: 279.83 u/L
- BLOOD UREA NITROGEN [3]: 16.33 mg/dL
- CARBON DIOXIDE [3]: 16.33 mmol/L
- CHLORIDE [3]: 100.33 MEQ/L
- CHOLESTEROL [3]: 70 mg/dL
- CREATINE PHOSPHOKINASE [3]: 845.5 u/L
- CREATININE [3]: 0.19 mg/dL
- GLUCOSE [3]: 129.67 mg/dL
- LACTATE DEHYDROGENASE [3]: 1003.17 u/L
- LIPASE [3]: 9 u/L
- PHOSPHORUS [3]: 15.78 mg/dL
- POTASSIUM [3]: 7.57 MEQ/L
- SODIUM [3]: 142.47 MEQ/L
- TOTAL BILIRUBIN [3]: 0.3 mg/dL
- TOTAL PROTEIN [3]: 6.17 G/DL
- URIC ACID [3]: 3.2 mg/dL
